Test results published in patent publication US8097585B2, “Methods of treating inflammation by administration of heme oxygenase-1 and products of heme degradation” (priority 2002, dated 2012).
Structures can show the parent of a compound that is named as a salt.

Key:
fulminant hepatitis = assay: TNF-α/D-Galactosamine hepatitis model, serum ALT; format: in vivo, mice (C57BL/6J)
Protocol: Male mice (C57BL/6J) were administered biliverdin ([…], i.p.) 16 hours and 1 hour prior to i.p. injection of a cocktail including 0.3 ug/mouse TNF-α (mouse TNF-α; Gibco) and 250 mg/kg, i.p. D-Galactosamine (Sigma), which induces fulminant hepatitis within 6-10 hours. Control mice received PBS vehicle. Serum samples were taken via cardiac puncture 6-8 hours later and analyzed for alanine aminotransferase (ALT) per an ALT assay kit from Sigma Chem. Co. following the manufacturer's directions.

IL-6 = assay: Real time RT-PCR of graft muscularis after SITx, IL-6; format: in vivo, LEW rats
Protocol: (§1) Small Intestinal Transplantation. Orthotopic small intestinal transplantation (SITx) was performed in syngeneic Lewis rats. SITx with caval drainage was performed using a previously described procedure (Murase et al., in Handbook of Animal Models in Transplantation Research, Cramer et al., Eds. CRC Press, Boca Raton, Fla., pp. 203-213 (1994)). […] The graft was perfused via the aortic segment with 5 ml chilled Ringer's lactate solution, and the intestinal lumen was irrigated with 20 ml of cold saline solution containing 0.5% neomycin-sulfate (Sigma, St. Louis, Mo.). End-to-side anastomoses between the graft aorta and the recipient infrarenal aorta, and between the graft portal vein and recipient vena cava, were performed with 10-0 Novafil™ suture. The cold ischemic time was 1 hour. The entire recipient intestine was removed and the enteric continuity was restored by proximal and distal end-to-end intestinal anastomoses. Recipient animals were given 20 mg/day prophylactic cefamandole nafate for 3 postoperative days. Transplanted recipients were given water 3 hours after surgery, and were fed 24 hours after surgery.
SYBR green real time RT-PCR. The effects of administration of biliverdin on transplant-induced pro-inflammatory and anti-inflammatory gene expression were assessed in muscularis extracts by RT-PCR Biliverdin ([…], i.p.) was administered to both the donor and recipient three hours preoperatively. The muscularis externae was collected from normal intestine and transplanted grafts 4 hours postoperatively and snap frozen in liquid nitrogen. […] Equal aliquots (5 μg) of total RNA from each sample were quantified by spectrophotometry (wavelength […]) and aliquoted at a concentration of 40 ng/μl. Peak mRNA expression was quantified in duplicate by SYBR Green two-step, real-time RT-PCR. […] Real-time PCR data were plotted as the ΔRn fluorescence signal versus the cycle number. […] Quantification of mRNA expression was normalized to GAPDH and calculated relative to control using the comparative CT method (Schmittgen et al., J. Biochem. Biophys. Methods 46(1-2):69-8, 2000). […]

[1] = system: MPO positive cells in intestinal muscularis; assay: Leukocyte recruitment into intestinal muscularis (MPO histochemistry); format: in vivo, LEW rats
Protocol: as §1
Leukocyte Recruitment. […] Myeloperoxidase (MPO) activity, as determined by Hanker-Yates histochemistry, was used to quantify the polymorphonuclear neutrophil (PMN) infiltrate in tissues from control and transplanted animals, with and without BV treatment. […]

[2] = Total antioxidant capacity of graft, SITx with 6 hours preservation; format: in vivo, LEW rats
Description: Antioxidant capacity after BV treatment. the total antioxidant capacity or antioxidant power within the graft specimens was quantitatively measured. Antioxidant levels in the graft were detected using Total Antioxidant Power® (Oxford Biomedical Research, Oxford, Mich.), according to the manufacturer's instructions. In this procedure, the evaluation of the antioxidant level in a sample is detected by evaluation of Cu^+ derived from Cu^++ by the combined action of all antioxidants present in the sample.

C=CC1=C(C)/C(=C/C2=NC(=C\c3[nH]c(/C=C4\NC(=O)C(C)=C4C=C)c(C)c3CCC(=O)O)/C(CCC(=O)O)=C2C)NC1=O [biliverdin, biliverdin dihydrochloride]
serum ALT (fulminant hepatitis; 6-8 hours after TNF-α/D-Galactosamine, control about 1000, normal 20-30): ~100 IU/ml | reduction of serum ALT levels compared to vehicle treated controls (fulminant hepatitis; biliverdin 50 mmol/kg i.p. 16 hours and 1 hour prior to TNF-α/D-Galactosamine): more than 90% | reduction of IL-6 mRNA expression (IL-6; BV 50 mmol/kg i.p. donor and recipient, 4 hours, versus saline-treated graft): 24% | basal mRNA expression of any of the cytokines (IL-6; BV treatment of unoperated animals): did not alter | mean number of MPO positive cells ([1]; 24 hours after SITx): significantly decreased | MPO positive cells ([1]; BV injection into normal animals): 3.9±1.3 cells per ×200 field | antioxidant capacity of the transplanted intestine [2]: increased the antioxidant capacity of the transplanted intestine to normal levels
